Assay results: patent US11472808B2, “Substituted pyrrolo[1,2-c]pyrimidines as hepatitis B antiviral agents” (Enanta Pharmaceuticals, Inc., priority 2019, dated 2022)

Test system: HBV
Assay: HepAD38 anti-HBV assay: reduction of viral product accumulation (virion DNA qPCR, HBsAg/HBeAg ELISA)
Format: cell-based
Conditions: Hepatitis B virus, 120 h; HepAD38 cells; concentration reducing viral product accumulation by 50% relative to no drug controls; harvest five days after compound addition; read-out: HepAD38 EC50
Experimental: Methods: HepAD38 cells are maintained as previously reported (Ladner et al, Antimicrob. Agents Chemother. 1997, […], 1715). Briefly, cells are passaged upon attaining confluency in DMEM/F12 media in the presence of 10% FBS, Penn/Strep, 250 μg/mL G418, and 1 μg/ml tetracycline. Novel compounds are screened by first washing cells three times with PBS to remove tetracycline, and plating in 96 well plates at 35,000 cells/well. Compounds dissolved in DMSO are then diluted 1:200 into wells containing cells. Five days after compound addition, material is harvested for analysis. For an extended 8 day analysis, cells are plated and treated as described above, but media and compound are refreshed on d2 and d5 post initial treatment.
On harvest day, virion DNA is obtained by lysing with Sidestep Lysis and Stabilization Buffer and then quantified via quantitative real time PCR. Commercially available ELISA kits are used to quantitate the viral proteins HBsAg (Alpco) or HbeAg (US Biological) by following the manufacturer's recommended protocol after diluting samples to match the linear range of their respective assays. Irrespective of readout, compound concentrations that reduce viral product accumulation in the cell lysates or supernatants by 50% relative to no drug controls (EC50) are reported; EC50 ranges are as follows: A<0.1 μM; B 0.1-0.4 μM; C>0.4 μM.

| Structure (SMILES) | EC50 [µM] |
| --- | --- |
| C[C@H](NC(=O)CC1(S(=O)(=O)N[C@H]2CC3=C(c4ccn(C(F)F)n4)[C@H](c4ccc(F)cc4Cl)N=C(c4nccs4)N3C2)CC1)c1ccccn1 [Example 374] | < 0.1 |
| CC(C)(NS(=O)(=O)N[C@H]1CC2=C(c3ccn(C(F)F)n3)[C@H](c3ccc(F)cc3Cl)N=C(c3nccs3)N2C1)c1ccccn1 [Example 318] | < 0.1 |
| O=S(=O)(CCCc1nnn[nH]1)N[C@H]1CC2=C(c3ccn(C(F)F)n3)[C@H](c3ccc(F)cc3Cl)N=C(c3nccs3)N2C1 [Example 137] | > 0.4 |
| O=S(=O)(C[C@@H]1CC2=C(c3ccn(C(F)F)n3)[C@H](c3ccc(F)cc3Cl)N=C(c3nccs3)N2C1)N1CCCCC1 [Example 298] | 0.1 to 0.4 |
| COC(=O)c1ccc(NC(=O)N2CCN([C@H]3CC4=C(c5ccn(C(F)F)n5)[C@H](c5ccc(F)cc5Cl)N=C(c5nccs5)N4C3)CC2)cc1 [Example 46] | > 0.4 |
| O[C@@]1(CCl)CC2=C(c3ccn(C(F)F)n3)[C@H](c3ccc(F)cc3Cl)N=C(c3nccs3)N2C1 [Example 124] | < 0.1 |
| C#CCNC[C@@]1(O)CC2=C(c3ccn(C(F)F)n3)[C@H](c3ccc(F)cc3Cl)N=C(c3nccs3)N2C1 [Example 114] | > 0.4 |
| CCOC(=O)C1CCN(S(=O)(=O)N[C@H]2CC3=C(c4ccn(C(F)F)n4)[C@H](c4ccc(F)cc4Cl)N=C(c4nccs4)N3C2)CC1 [Example 87] | < 0.1 |
| COC[C@@]1(O)CC2=C(c3ccn(C(F)F)n3)[C@H](c3ccc(F)cc3Cl)N=C(c3nccs3)N2C1 [Example 106] | > 0.4 |
| O=C(O)C1CCN(C(=O)N[C@H]2CC3=C(c4ccn(C(F)F)n4)[C@H](c4ccc(F)cc4Cl)N=C(c4nccs4)N3C2)CC1 [Example 212] | 0.1 to 0.4 |
| O=S(=O)(N[C@H]1CC2=C(c3ccn(C(F)F)n3)[C@H](c3ccc(F)cc3Cl)N=C(c3nccs3)N2C1)c1ccc([C@H]2CC[C@@](O)(c3ccccn3)CC2)cc1 [Example 384] | < 0.1 |
| CCNS(=O)(=O)N[C@H]1CC2=C(c3ccn(C(F)F)n3)[C@H](c3ccc(F)cc3Cl)N=C(c3nccs3)N2C1 [Example 76] | < 0.1 |
| O=S(=O)(N[C@H]1CC2=C(c3ccn(C(F)F)n3)[C@H](c3ccc(F)cc3Cl)N=C(c3nccs3)N2C1)c1cc(F)c(F)c(F)c1 [Example 412] | < 0.1 |
| O=S(=O)(N[C@H]1CC2=C(c3ccn(C(F)F)n3)[C@H](c3ccc(F)cc3Cl)N=C(c3nccs3)N2C1)c1ccc(C(F)(F)F)cc1 [Example 406] | < 0.1 |
| Cn1cc(S(=O)(=O)N[C@H]2CC3=C(c4ccn(C(F)F)n4)[C@H](c4ccc(F)cc4Cl)N=C(c4nccs4)N3C2)cn1 [Example 404] | < 0.1 |
| O=S(=O)(CCN1CCOCC1)N[C@H]1CC2=C(c3ccn(C(F)F)n3)[C@H](c3ccc(F)cc3Cl)N=C(c3nccs3)N2C1 [Example 56] | 0.1 to 0.4 |
| C=CC1(F)CC2=C(c3ccn(C(F)F)n3)[C@H](c3ccc(F)cc3Cl)N=C(c3nccs3)N2C1 (stereo partly drawn) [Example 171] | 0.1 to 0.4 |
| N#CCCCS(=O)(=O)N([C@H]1CC2=C(c3ccn(C(F)F)n3)[C@H](c3ccc(F)cc3Cl)N=C(c3nccs3)N2C1)S(=O)(=O)CCCC#N [Example 136] | 0.1 to 0.4 |
| C[C@@H](NS(=O)(=O)N[C@H]1CC2=C(c3ccn(C(F)F)n3)[C@H](c3ccc(F)cc3Cl)N=C(c3nccs3)N2C1)c1ccccn1 [Example 159] | > 0.4 |
| OCC[C@@]1(F)CC2=C(c3ccn(C(F)F)n3)[C@H](c3ccc(F)cc3Cl)N=C(c3nccs3)N2C1 [Example 168] | < 0.1 |
| O=S(=O)(N[C@H]1CC2=C(c3ccn(C(F)F)n3)[C@H](c3ccc(F)cc3Cl)N=C(c3nccs3)N2C1)c1c(Cl)cccc1Cl [Example 402] | 0.1 to 0.4 |
| COC(=O)c1cccc(S(=O)(=O)NCC2(F)CC3=C(c4ccn(C(F)F)n4)[C@H](c4ccc(F)cc4Cl)N=C(c4nccs4)N3C2)c1 (stereo partly drawn) [Example 190] | > 0.4 |
| CC(C)[C@@H](NS(=O)(=O)N[C@H]1CC2=C(c3ccn(C(F)F)n3)[C@H](c3ccc(F)cc3Cl)N=C(c3nccs3)N2C1)c1ccccn1 [Example 341] | 0.1 to 0.4 |
| OCC(O)[C@@]1(F)CC2=C(c3ccn(C(F)F)n3)[C@H](c3ccc(F)cc3Cl)N=C(c3nccs3)N2C1 (stereo partly drawn) [Example 170] | 0.1 to 0.4 |
| O=C(N[C@H]1CC2=C(c3ccn(C(F)F)n3)[C@H](c3ccc(F)cc3Cl)N=C(c3nccs3)N2C1)N1CCC(O)(c2ncc[nH]2)CC1 [Example 247] | > 0.4 |
| OC[C@]1(F)CC2=C(c3ccn(C(F)F)n3)[C@H](c3ccc(F)cc3Cl)N=C(c3nccs3)N2C1 [Example 165] | 0.1 to 0.4 |
| COC(=O)c1ccc(CS(=O)(=O)N[C@H]2CC3=C(c4ccn(C(F)F)n4)[C@H](c4ccc(F)cc4Cl)N=C(c4nccs4)N3C2)cc1 [Example 34] | < 0.1 |

| Structure (SMILES) | EC50 [µM] |
| --- | --- |
| O=C(O)c1ccc(S(=O)(=O)N[C@H]2CC3=C(c4ccn(C(F)F)n4)[C@H](c4ccc(F)cc4Cl)N=C(c4nccs4)N3C2)cc1 [Example 6] | < 0.1 |
| O=C(N[C@H]1CC2=C(c3ccn(C(F)F)n3)[C@H](c3ccc(F)cc3Cl)N=C(c3nccs3)N2C1)C1CC1 [Example 236] | < 0.1 |
| O=S(=O)(N[C@H]1CC2=C(c3ccn(C(F)F)n3)[C@H](c3ccc(F)cc3Cl)N=C(c3nccs3)N2C1)N[C@@H](c1ccccn1)C1CC1 [Example 354] | 0.1 to 0.4 |
| O=C(N[C@H]1CC2=C(c3ccn(C(F)F)n3)[C@H](c3ccc(F)cc3Cl)N=C(c3nccs3)N2C1)N1CCC[C@H](O)C1 [Example 229] | 0.1 to 0.4 |
| O=S(=O)(CCCO)N[C@H]1CC2=C(c3ccn(C(F)F)n3)[C@H](c3ccc(F)cc3Cl)N=C(c3nccs3)N2C1 [compound 313] | < 0.1 |
| CC(C)NC(=O)N[C@H]1CC2=C(c3ccn(C(F)F)n3)[C@H](c3ccc(F)cc3Cl)N=C(c3nccs3)N2C1 [Example 204] | < 0.1 |
| COC(=O)c1ccccc1S(=O)(=O)N[C@H]1CC2=C(c3ccn(C(F)F)n3)[C@H](c3ccc(F)cc3Cl)N=C(c3nccs3)N2C1 [Example 4] | 0.1 to 0.4 |
| O=C(Cc1ccccn1)N[C@H]1CC2=C(c3ccn(C(F)F)n3)[C@H](c3ccc(F)cc3Cl)N=C(c3nccs3)N2C1 [Example 326] | 0.1 to 0.4 |
| O=C(N[C@H]1CC2=C(c3ccn(C(F)F)n3)[C@H](c3ccc(F)cc3Cl)N=C(c3nccs3)N2C1)c1ncc[nH]1 [Example 234] | < 0.1 |
| O=C(O)C1CCCN1CCS(=O)(=O)N[C@H]1CC2=C(c3ccn(C(F)F)n3)[C@H](c3ccc(F)cc3Cl)N=C(c3nccs3)N2C1 (stereo partly drawn) [Example 65] | > 0.4 |
| CONC[C@@]1(O)CC2=C(c3ccn(C(F)F)n3)[C@H](c3ccc(F)cc3Cl)N=C(c3nccs3)N2C1 [Example 126] | > 0.4 |
| CS(=O)(=O)c1ccc(NS(=O)(=O)N[C@H]2CC3=C(c4ccn(C(F)F)n4)[C@H](c4ccc(F)cc4Cl)N=C(c4nccs4)N3C2)cc1 [Example 347] | 0.1 to 0.4 |
| CS(=O)(=O)N1CCN(C(=O)N[C@H]2CC3=C(c4ccn(C(F)F)n4)[C@H](c4ccc(F)cc4Cl)N=C(c4nccs4)N3C2)CC1 [Example 222] | 0.1 to 0.4 |
| O=C(N[C@H]1CC2=C(c3ccn(C(F)F)n3)[C@H](c3ccc(F)cc3Cl)N=C(c3nccs3)N2C1)N1CCC(O)(c2ncco2)CC1 [Example 245] | 0.1 to 0.4 |
| COC(=O)c1ccc(C#CCN2CCN([C@H]3CC4=C(c5ccn(C(F)F)n5)[C@H](c5ccc(F)cc5Cl)N=C(c5nccs5)N4C3)C2=O)cc1 [Example 42] | > 0.4 |
| CCC(=O)N[C@H]1CC2=C(c3ccn(C(F)F)n3)[C@H](c3ccc(F)cc3Cl)N=C(c3nccs3)N2C1 [Example 197] | 0.1 to 0.4 |
| C=CCNC[C@]1(O)CC2=C(c3ccn(C(F)F)n3)[C@H](c3ccc(F)cc3Cl)N=C(c3nccs3)N2C1 [Example 117] | > 0.4 |
| Cc1ccc(S(=O)(=O)N2CCN([C@H]3CC4=C(c5ccn(C(F)F)n5)[C@H](c5ccc(F)cc5Cl)N=C(c5nccs5)N4C3)CC2)cc1 [Example 44] | > 0.4 |
| O=C(O)c1ccccc1CS(=O)(=O)N[C@H]1CC2=C(c3ccn(C(F)F)n3)[C@H](c3ccc(F)cc3Cl)N=C(c3nccs3)N2C1 [Example 23] | 0.1 to 0.4 |
| C#CCN1CCN([C@H]2CC3=C(c4ccn(C(F)F)n4)[C@H](c4ccc(F)cc4Cl)N=C(c4nccs4)N3C2)C1=O [Example 41] | 0.1 to 0.4 |
| O=S(=O)(N[C@H]1CC2=C(c3ccn(C(F)F)n3)[C@H](c3ccc(F)cc3Cl)N=C(c3nccs3)N2C1)c1ccc(F)c(F)c1 [Example 393] | 0.1 to 0.4 |
| CS(=O)(=O)NC[C@]1(N)CC2=C(c3ccn(C(F)F)n3)[C@H](c3ccc(F)cc3Cl)N=C(c3nccs3)N2C1 [Example 146] | > 0.4 |
| COC(=O)Cc1cccc(S(=O)(=O)N[C@H]2CC3=C(c4ccn(C(F)F)n4)[C@H](c4ccc(F)cc4Cl)N=C(c4nccs4)N3C2)c1 [Example 31] | < 0.1 |
| O=C(N[C@H]1CC2=C(c3ccn(C(F)F)n3)[C@H](c3ccc(F)cc3Cl)N=C(c3nccs3)N2C1)O[C@H]1CC[C@H](O)CC1 [Example 254] | < 0.1 |
| COC[C@]1(O)CC2=C(c3ccn(C(F)F)n3)[C@H](c3ccc(F)cc3Cl)N=C(c3nccs3)N2C1 [Example 107] | > 0.4 |
| O=S(=O)(N[C@H]1CC2=C(c3ccn(C(F)F)n3)[C@H](c3ccc(F)cc3Cl)N=C(c3nccs3)N2C1)N1CCCC(F)(F)C1 [Example 278] | < 0.1 |
| O=S(=O)(N[C@H]1CC2=C(c3ccn(C(F)F)n3)[C@H](c3ccc(F)cc3Cl)N=C(c3nccs3)N2C1)[C@H]1CC[C@](O)(c2ccccn2)CC1 [Example 104] | < 0.1 |
